According to patent US11413278B2, “Compounds and methods for promoting stress resistance” (priority 2015, dated 2022):
“Also recorded” adds a separate entry of the source. Read-outs that look alike come from different tables or passages of the source.

Tests used:
Assay type in all cases: cell-based, human
NRF2 = test: qPCR analysis of NRF2-regulated genes; conditions: for Potential NRF2 Activation (>=2 target genes induced, by >=1.5-fold): Assay 13(p); for fold induction at 10 µM: Homo sapiens
Outline: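 Expression of HMOX1, NQO1, GCLC and GSTM1 measured by qPCR relative to B2M, PPIA and GAPDH. Cells were WI-38 fibroblasts exposed 24 hrs to 10 μM compound, with RNA and cDNA prepared via Cells-to-Ct. Where stated, cells were first transfected 36 hrs with FOXO3 or NRF2 siRNA at 10 nM.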

FOXO3 = test: qPCR analysis of FOXO3-regulated genes; conditions: for fold induction at 10 µM: Homo sapiens; for K = Sestrin induction: score
Outline: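 FOXO3 target-gene expression quantified by qPCR normalised to B2M, PPIA and GAPDH, in WI-38 cells after 24 h exposure to 10 μM compound. Some runs used cells first transfected 36 h with 10 nM FOXO3 or NRF2 siRNA and replated ~24 h before dosing.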

mTOR = mTOR inhibition (RPS6 phosphorylation status), In-Cell Western
Outline: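 Read-out is In-Cell Western near-infrared imaging of phospho-RPS6 (Ser-235/236) against total RPS6, using overnight 4° C primary staining and DyLight 680/800 secondaries. Compounds were given to WI-38 cells for 24 hrs at three doses: 5, 10 and 20 μM.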

[1] = 24 h, Assay 12(o), at 10 uM, qPCR, read-out: Induction of NRF2-regulated genes: GSTM1 normalized fold-change
[2] = 24 h, Assay 12(o), at 10 uM, qPCR, read-out: Induction of NRF2-regulated genes: HMOX1 normalized fold-change
[3] = rounded fold change, WI-38 cells, 10 μM, 24 hrs (RP11 for Gr-1D, RP29 for Gr-4D), read-out: Summary of effects on NRF2-regulated genes: HMOX1
[4] = rounded fold change, WI-38 cells, 10 μM, 24 hrs (RP29 for Gr-4D), read-out: Summary of effects on NRF2-regulated genes: GSTM1
[5] = 10 μM, 24 hrs, WI-38, read-out: Expression of at least two NRF2 target genes
[6] = 10 μM, 24 hrs, WI-38 cells, qPCR, normalized to B2M, n = 4, read-out: GSTM1 expression, normalized fold change (NRF2-regulated gene)
[7] = 10 μM, 24 hrs, WI-38 cells, qPCR, normalized to B2M, n = 4, read-out: HMOX1 expression, normalized fold change (NRF2-regulated gene)
[8] = WI-38 cells, 10 μM, 24 hrs, n=4, qPCR normalized by B2M, read-out: GCLC Normalized fold change
[9] = WI-38 cells, 10 μM, 24 hrs, n=4, qPCR normalized by B2M, read-out: GSTM1 Normalized fold change
[10] = WI-38 cells, 10 μM, 24 hrs, n=4, qPCR normalized by B2M, read-out: HMOX1 Normalized fold change
[11] = WI-38 cells, 10 μM, 24 hrs, n=4, qPCR normalized by B2M, read-out: NQO1 Normalized fold change
[12] = 24 h, Assay 10(m), at 10 uM, qPCR, read-out: Induction of FOXO3-regulated genes: CAT normalized fold-change
[13] = 24 h, Assay 10(m), at 10 uM, qPCR, read-out: Induction of FOXO3-regulated genes: DDB1 normalized fold-change
[14] = 10 μM, 24 hrs, WI-38 cells, qPCR, normalized to B2M, n = 4, read-out: CAT expression, normalized fold change (FOXO3-regulated gene)
[15] = 10 μM, 24 hrs, WI-38 cells, qPCR, normalized to B2M, n = 4, read-out: DDB1 expression, normalized fold change (FOXO3-regulated gene)
[16] = WI-38 cells, 10 μM, 24 hrs, n=4, qPCR normalized by B2M, read-out: DDB1 Normalized fold change
[17] = WI-38 cells, 10 μM, 24 hrs, n=4, qPCR normalized by B2M, read-out: GADD45A Normalized fold change
[18] = WI-38 cells, 10 μM, 24 hrs, n=4, qPCR normalized by B2M, read-out: SESN1 Normalized fold change
[19] = fold change, qPCR, WI-38 cells, 10 μM, 24 hrs, read-out: Summary of effects on FOXO3-regulated genes: CAT
[20] = fold change, qPCR, WI-38 cells, 10 μM, 24 hrs, read-out: Summary of effects on FOXO3-regulated genes: DDB1
[21] = qPCR, WI-38 cells, 10 μM, n=4, 24 hrs, normalized by B2M, read-out: CAT Normalized fold change
[22] = qPCR, WI-38 cells, 10 μM, n=4, 24 hrs, normalized by B2M, read-out: SOD2 Normalized fold change
[23] = qPCR, WI-38 cells, 10 μM, n=4, 24 hrs, normalized by B2M, read-out: TXNIP Normalized fold change

In the case of `O=C(NCc1cccnc1)/C(=C/c1ccc(-c2ccc(Cl)cc2)o1)S(=O)(=O)c1ccccc1` [Gr-7C], the “F = Potential NRF2 Activation” value (NRF2; 2-point score) is reported as 2, the “Potential NRF2 Activation (>=2 target genes induced, by >=1.5-fold)” value (NRF2) is reported as “YES” and the fold induction at 10 µM (NRF2; 24 h, Assay 12(o), at 10 uM, qPCR, read-out: Induction of NRF2-regulated genes: GCLC normalized fold-change) is reported as 2.27. The fold induction at 10 µM (NRF2; [1]) was 0.78, the fold induction at 10 µM (NRF2; [2]) was 28.1 and the fold induction at 10 µM (NRF2; [3]) was 28.1. It also gave a fold induction at 10 µM (NRF2; [4]) of 0.78, a fold induction at 10 µM (NRF2; rounded fold change, WI-38 cells, 10 μM, 24 hrs, read-out: Summary of effects on NRF2-regulated genes: GCLC) of 2.27 and a fold induction at 10 µM (NRF2; [5]) of over 1.5. For the same compound, the fold induction at 10 µM (NRF2; 10 μM, 24 hrs, WI-38 cells, qPCR, normalized to B2M, n = 4, read-out: GCLC expression, normalized fold change (NRF2-regulated gene)) was 2.27, the fold induction at 10 µM (NRF2; [6]) was 0.78 and the fold induction at 10 µM (NRF2; [7]) was 28.1. The fold induction at 10 µM (NRF2; [8]) was 2.27, the fold induction at 10 µM (NRF2; [9]) was 0.784 and the fold induction at 10 µM (NRF2; [10]) was 28. For the same compound, the fold induction at 10 µM (NRF2; [11]) was 0.811, the “F = Potential NRF2 Activation” value (NRF2; summary score) was 2 and the “SOD2 expression, normalized fold change (FOXO3-regulated gene)” value (FOXO3; 10 μM, 24 hrs, WI-38 cells, qPCR, normalized to B2M, n = 4) was “SOD2 2.67, fold”. For the same compound, the “E = Potential FOXO3 Activation” value (FOXO3; 2-point score) was 2, the “Potential FOXO3 Activation (>=2 target genes induced, by >=1.5-fold)” value (FOXO3; Assay 11(n)) was “YES” and the fold induction at 10 µM (FOXO3; [12]) was 1.43. It also gave a fold induction at 10 µM (FOXO3; [13]) of 1.36, a fold induction at 10 µM (FOXO3; 24 h, Assay 10(m), at 10 uM, qPCR, read-out: Induction of FOXO3-regulated genes: GADD45A normalized fold-change) of 10.9 and a fold induction at 10 µM (FOXO3; 24 h, Assay 10(m), at 10 uM, qPCR, read-out: Induction of FOXO3-regulated genes: SOD2 normalized fold-change) of 2.67. The fold induction at 10 µM (FOXO3; 24 h, Assay 10(m), at 10 uM, qPCR, read-out: Induction of FOXO3-regulated genes: TXNIP normalized fold-change) was 0.07, the fold induction at 10 µM (FOXO3; [14]) was 1.43 and the fold induction at 10 µM (FOXO3; [15]) was 1.36. For the same compound, the fold induction at 10 µM (FOXO3; 10 μM, 24 hrs, WI-38 cells, qPCR, normalized to B2M, n = 4, read-out: GADD45A expression, normalized fold change (FOXO3-regulated gene)) was 10.9, the fold induction at 10 µM (FOXO3; 10 μM, 24 hrs, WI-38 cells, qPCR, normalized to B2M, n = 4, read-out: TXNIP expression, normalized fold change (FOXO3-regulated gene)) was 0.07 and the fold induction at 10 µM (FOXO3; [16]) was 1.36. The fold induction at 10 µM (FOXO3; [17]) was 10.9, the fold induction at 10 µM (FOXO3; [18]) was 1.28 and the fold induction at 10 µM (FOXO3; [19]) was 1.43. For the same compound, the fold induction at 10 µM (FOXO3; [20]) was 1.36, the fold induction at 10 µM (FOXO3; fold change, qPCR, WI-38 cells, 10 μM, 24 hrs, read-out: Summary of effects on FOXO3-regulated genes: GADD45A) was 10.9 and the fold induction at 10 µM (FOXO3; fold change, qPCR, WI-38 cells, 10 μM, 24 hrs, read-out: Summary of effects on FOXO3-regulated genes: TXNIP) was 0.07. The fold induction at 10 µM (FOXO3; [21]) was 1.43, the fold induction at 10 µM (FOXO3; [22]) was 2.68 and the fold induction at 10 µM (FOXO3; [23]) was 0.068. For the same compound, the “Summary of effects on FOXO3-regulated genes: SOD2” value (FOXO3; fold change, qPCR, WI-38 cells, 10 μM, 24 hrs) was “SOD2 2.67,”, the “K = Sestrin induction” value (FOXO3) was 0 and the “E = Potential FOXO3 Activation” value (FOXO3; summary score) was 2. The “G = mTOR down-regulation” value (mTOR; 2-point score) was 2, the “mTOR down-regulation by p-RPS6 assays” value (mTOR; Assay 14(q), at 5 uM, 10 uM & 20 uM) was “YES” and the “Exp. 1, normalized reduction in p-RPS6/RPS6 ratio” value (mTOR; Exp. 1, In-Cell Western, n=4) was ~80% (−), at 20 μM. For the same compound, the “Exp. 3, normalized reduction in p-RPS6/RPS6 ratio” value (mTOR; Exp. 3, In-Cell Western, n=4) was ~40% (−), at 20 μM, the “Exp. 3, normalized reduction in p-RPS6/RPS6 ratio” value (mTOR; Exp. 3, at 5 μM, In-Cell Western, n=4) was ~38% (−), at 5 μM; and the “mTOR inhibition (p-RPS6/RPS6), qualitative” value (mTOR; In-Cell Western) was “consistently reduced the ratios”. For the same compound, the “G = mTOR down-regulation” value (mTOR; summary score) was 2.

In the case of `COc1ccc(C(=O)/C=C/c2ccc(F)cc2)c(OC)c1` [Gr-4A], the “F = Potential NRF2 Activation” value (NRF2; 2-point score) is reported as 2, the “Potential NRF2 Activation (>=2 target genes induced, by >=1.5-fold)” value (NRF2) is reported as “YES” and the fold induction at 10 µM (NRF2; [1]) is reported as 1.24. The fold induction at 10 µM (NRF2; [2]) was 5.24, the fold induction at 10 µM (NRF2; 24 h, Assay 12(o), at 10 uM, qPCR, read-out: Induction of NRF2-regulated genes: NQO1 normalized fold-change) was 2.73 and the fold induction at 10 µM (NRF2; [3]) was 5.24. The fold induction at 10 µM (NRF2; [4]) was 1.24, the fold induction at 10 µM (NRF2; rounded fold change, WI-38 cells, 10 μM, 24 hrs (RP29 for Gr-4D), read-out: Summary of effects on NRF2-regulated genes: NQO1) was 2.73 and the fold induction at 10 µM (NRF2; [5]) was over 1.5. It also gave a fold induction at 10 µM (NRF2; [6]) of 1.24, a fold induction at 10 µM (NRF2; [7]) of 5.24 and a fold induction at 10 µM (NRF2; 10 μM, 24 hrs, WI-38 cells, qPCR, normalized to B2M, n = 4, read-out: NQO1 expression, normalized fold change (NRF2-regulated gene)) of 2.73. It also gave a fold induction at 10 µM (NRF2; [8]) of 1.18, a fold induction at 10 µM (NRF2; [9]) of 1.24 and a fold induction at 10 µM (NRF2; [10]) of 5.24. For the same compound, the fold induction at 10 µM (NRF2; [11]) was 2.73, the “F = Potential NRF2 Activation” value (NRF2; summary score) was 2 and the “Induction of at least two of five FOXO3-regulated genes (SOD2, GADD45A, CAT, DDB1, TXNIP)” value (FOXO3; 10 μM, 24 hrs, WI-38) was “significant induction; also recorded: significant, induction”. The “E = Potential FOXO3 Activation” value (FOXO3; 2-point score) was 0, the fold induction at 10 µM (FOXO3; [12]) was 1.26 and the fold induction at 10 µM (FOXO3; [13]) was 1.2. It also gave a fold induction at 10 µM (FOXO3; [14]) of 1.26, a fold induction at 10 µM (FOXO3; [15]) of 1.2 and a fold induction at 10 µM (FOXO3; [16]) of 1.2. For the same compound, the fold induction at 10 µM (FOXO3; [17]) was 0.981, the fold induction at 10 µM (FOXO3; [18]) was 1.12 and the fold induction at 10 µM (FOXO3; [19]) was 1.26. It also gave a fold induction at 10 µM (FOXO3; [20]) of 1.2, a fold induction at 10 µM (FOXO3; [21]) of 1.26 and a fold induction at 10 µM (FOXO3; [22]) of 0.98. The fold induction at 10 µM (FOXO3; [23]) was 0.819, the “K = Sestrin induction” value (FOXO3) was 0 and the “E = Potential FOXO3 Activation” value (FOXO3; summary score) was 0. The “G = mTOR down-regulation” value (mTOR; 2-point score) was 0 and the “G = mTOR down-regulation” value (mTOR; summary score) was 0.
